The text below walks through data of US20110301110A1, “TRIM33 (TIF1gamma) AS A NEW DIAGNOSTIC MARKER OF CHRONIC MYELOMONOCYTIC LEUKEMIA (CMML)” (priority 2010, published 2011).

Test [1] deals with TIF1γ expression in sorted PB monocytes (CD14+ cells). Put plainly: TIF1γ expression (RQ-PCR, immuno-blotting) in sorted PB monocytes (CD14+ cells) of a CMML patient before and after treatment with decitabine. The test is classed as in vivo, human. The conditions noted are these: one CMML patient with very low Tif1γ level, after 5 cycles of decitabine; sorted PB monocytes (FIG. 7A). As to the method: Protein extracts were prepared from purified human monocytes (CD14+ cells) for SDS-PAGE and immuno-blotting with anti-TIF1γ antibody. Equivalent loading of lanes was controlled by the use of an anti-HSC70 antibody.

Test [2] has as its system NALM-6. The conditions noted are these: NALM-6 human tumor cell line; cited from earlier work.
For test [3], the system named is HCT116. The conditions noted are these: HCT116 human tumor cell line; cited from earlier work.
In test [4] the test system is control Lin- cells. Put plainly: control Lin- cells cultured for 10 days in the presence or absence of TGF-β or TGF-β inhibitor, formation of myeloid cells. The conditions noted are these: 10 days culture, compared to untreated cultures. The format is cell-based, mouse. As to the method: (§1) To answer this question, control and Tif1γ-deficient Lin^− cells were cultured for 10 days in the presence or absence of TGF-β. Cells were also treated with TGF-β inhibitor.

For test [5], the system named is Tif1γ-deficient Lin- cells. The experiment in a line: Tif1γ-deficient Lin- cells cultured for 10 days in the presence or absence of TGF-β, myelopoiesis. The format is cell-based, mouse. The note with it: 10 days culture. As to the method: as §1

Take `Nc1ncn([C@H]2C[C@H](O)[C@@H](CO)O2)c(=O)n1` [decitabine, 4-amino-1-(2-deoxy-b-D-erythro-pentofuranosyl)-1,3,5-triazin-2(1 H)-one]: the “TIF1γ expression, increase compared to the level measured before treatment” value in test [1] stood at 8 fold.

On to `O=C(O)C(Cc1c[nH]c2ccccc12)N1C(=O)c2ccccc2C1=O` (centres unmarked) [RG 108, N-phthalyl-1-tryptophan], for which the proliferation entry in test [2] and in test [3] was “inhibits” each time.

TGF-β: the “formation of myeloid cells” value in test [4] was “limited formation of myeloid cells”. Also, in test [5], the myelopoiesis entry is on record as “did not inhibit myelopoiesis”.
